Assay results reported in patent US20250345333A1, “THERAPIES WITH PPAR AGONISTS AND FGFR4 INHIBITORS” (TYRA BIOSCIENCES, INC., priority 2022, published 2025).
Like-named read-outs stand apart in the source and are kept apart here.

Assays:
[1] = test system: Cyp7a1 mRNA expression in mouse livers; assay: Liver Cyp7a1 mRNA expression in mice
Experimental: For the in vivo experiments, male C57BL/6 mice were dosed orally with vehicle, fenofibrate, an FGFR4 inhibitor, or with a combination of fenofibrate and an FGFR4 inhibitor at the doses indicated. Before the final day of the study, animals were fasted overnight and serum was collected 4 hours after the final dose. Serum C4 (7-alpha-hydroxy- 4-cholestene-3-one) analyses were carried out on an Agilent 6495 triple quadrupole mass spectrometer with jet stream source coupled to an Agilent 1290 UPLC stack. Data was processed using Waters TargetLynx data processing software. Calibration curves were generated using reference standard (7A4C; Sigma-Aldrich). Calibration range was from 0.5ng/ml-200 ng/ml with an internal deuterated standard (7A4C-D7; Avanti Polar Lipids) concentration of 100 ng/ml. The vehicle for fenofibrate, FGF401 and H3B-6527 was 0.5% methylcellulose/0.5% tween 80 (MC/Tween), and the vehicle for BLU554 was 80% PEG400/4% hydroxypropyl-β-cyclodextrin (HPBCD). When combination treatments were tested, the vehicle treatment groups received both vehicles, formulated separately. In the combination treatment groups, the compounds were formulated and dosed separately.

[2] = test system: serum C4 (7-alpha-hydroxy-4-cholestene-3-one); assay: Serum C4 in athymic nude mice carrying HuH-7 tumors; format: in vivo; conditions: 14 days; for serum C4 levels: HuH-7 tumor-bearing mice, inhibitor alone: BLU554 100 mg/kg BID, FGF401 30 or 100 mg/kg BID
[3] = test system: CYP7A1 expression in HuH-7 cells; assay: CYP7A1 mRNA expression (qPCR, relative to Actin) in HuH-7 cells
Experimental: (§1) Fenofibrate or fenofibric acid was applied at a concentration of 2, 5, and 10 μM added simultaneously in combination with 30 nM of BLU-554 in growth media (DMEM supplemented with 10% Fetal Bovine Serum), for 18 hours. mRNA was then isolated and CYP7A1 expression was measured using TaqMan™ qPCR Assays (CYP7A1 assay ID: Hs00167982_m1, ACTNB assay ID: Hs99999903_m1).
(§2) Hep3B and HUH-7 cells were treated with 10 μg/ml mouse Isotype monoclonal IgG control (R&D-MAB002), or 2 μg/ml, 5 μg/ml, and 10 μg/ml of hFGF19 Antibody (R&D-AF969) for 24 hours. mRNA was then isolated and CYP7A1 expression was measured using qPCR. The depicted data represent the fold change in CYP7A1 mRNA levels compared to vehicle (DMSO) treated cells, and Actin was used as internal control.
(§3) Hep3B and HUH-7 cells were treated with 10 μg/ml of hFGF19 Antibody (R&D-AF969) in combination with 2 μM, 5 μM, or 10 μM of fenofibrate, for 24 hours. Two control groups included; untreated cells, and cell treated with 10 μg/ml mouse Isotype monoclonal IgG (R&D-MAB002), for 24 hours.

[4] = test system: serum C4 (7-alpha-hydroxy-4-cholestene-3-one); assay: Serum C4 in C57BL/6 mice dosed orally
Experimental: For the in vivo experiments, male C57BL/6 mice were dosed orally with vehicle, fenofibrate, an FGFR4 inhibitor, or with a combination of fenofibrate and an FGFR4 inhibitor at the doses indicated. Before the final day of the study, animals were fasted overnight and serum was collected 4 hours after the final dose. Serum C4 (7-alpha-hydroxy- 4-cholestene-3-one) analyses were carried out on an Agilent 6495 triple quadrupole mass spectrometer with jet stream source coupled to an Agilent 1290 UPLC stack. Data was processed using Waters TargetLynx data processing software. Calibration curves were generated using reference standard (7A4C; Sigma-Aldrich). Calibration range was from 0.5ng/ml-200 ng/ml with an internal deuterated standard (7A4C-D7; Avanti Polar Lipids) concentration of 100 ng/ml. […] When combination treatments were tested, the vehicle treatment groups received both vehicles, formulated separately. In the combination treatment groups, the compounds were formulated and dosed separately. The mean C4 value for each group of 4 mice is shown, and error bars represent standard error of the mean.

[5] = test system: CYP7A1 expression in Hep3B cells; assay: CYP7A1 mRNA expression (qPCR, relative to Actin) in Hep3B cells
Experimental: as §1, §2, §3

[6] = test system: serum C4 (7-alpha-hydroxy-4-cholestene-3-one); assay: Serum C4 in athymic nude (Nu/Nu) mice; format: in vivo; conditions: FGF401 at 30 mg/kg, H3B-6527 at 300 mg/kg
[7] = test system: bile acid (BA) levels; assay: Bile acid levels in liver, plasma and gallbladder of athymic nude mice; conditions: oral, BID, 3 weeks; H3B-6527 300 mg/kg, FGF401 30 mg/kg; 4 hours after final dose; vs vehicle
Experimental: FIGS. 14A-14C are bar graphs depicting changes in bile acid (BA) levels (fold change over control) in liver (FIG. 14A), plasma (FIG. 14B), and gallbladder (FIG. 14C) of athymic nude (Nu/Nu) mice treated orally with vehicle ((1) 0.5% MC/tween), H3B-6527 ((2) 300 mg/kg, BID), or FGF401/Roblitinib ((3) 30 mg/kg, BID), for 3 weeks. Four hours after the final dose, mice were euthanized and plasma, liver and gallbladder samples were collected, and bile acid levels measured.
FIGS. 14A-14C are bar graphs depicting changes of bile acid (BA) levels (fold change over control) in liver (FIG. 14A), plasma (FIG. 14B), and gallbladder (FIG. 14C) of athymic nude (Nu/Nu) mice treated orally with vehicle (0.5% MC/tween), H3B-6527 (300 mg/kg, BID), or FGF401/Roblitinib (30 mg/kg, BID), for 3 weeks. Four hours after the final dose, mice were euthanized and plasma, liver and gallbladder samples were collected and bile acid levels measured. Bile acids were measured at the metabolomics core facility of University of Kansas Medical Center, following an established protocol.

## C=CC(=O)N[C@H]1CCOC[C@H]1Nc1ncc2cc(-c3c(Cl)c(OC)cc(OC)c3Cl)ccc2n1 [BLU-554, fisogatinib]
[1]; BLU-554 (100 mg/kg) alone
  liver Cyp7a1 mRNA expression (% Actb): Cyp7a1 upregulation
[2]
  serum C4 levels: significantly raised levels
[3]
  CYP7A1 expression (Relative mRNA expression/Actin): increased CYP7A1 expression
[4]; C57BL/6 mice, BLU554 at 100 mg/kg
  levels of serum C4: increases in levels of serum C4
[5]
  CYP7A1 expression (Relative mRNA expression/Actin): increased CYP7A1 expression

## CC(C)OC(=O)C(C)(C)Oc1ccc(C(=O)c2ccc(Cl)cc2)cc1 [fenofibrate]
[1]; fenofibrate co-administered with BLU-554 (100 mg/kg)
  liver Cyp7a1 mRNA expression (% Actb): reversed BLU-554-induced Cyp7a1 upregulation in mouse livers, in a dose dependent manner
[2]; fenofibrate 40 mg/kg QD plus BLU554 100 mg/kg BID
  rise in serum C4: significantly attenuated the rise in C4
[2]; fenofibrate 40 mg/kg QD plus FGF401 30 mg/kg BID
  rise in serum C4: attenuated the rise in C4
[4]; different doses of fenofibrate in combination with BLU-554 (100 mg/Kg), 6 days
  serum C4 levels: reduced the increase in C4 caused by BLU554

## C=CC(=O)Nc1cc(N2CCN(CC)CC2)ccc1Nc1cc(N(C)C(=O)Nc2c(Cl)c(OC)cc(OC)c2Cl)ncn1 [H3B-6527]
[6]
  levels of serum C4: increases in levels of serum C4

## COCCNc1cc(NC(=O)N2CCCc3cc(CN4CCN(C)CC4=O)c(C=O)nc32)ncc1C#N [FGF-401, roblitinib]
[7]
  bile acids level in gall bladder (fold change over control): increased bile acids level
  bile acids level in liver (fold change over control): increased bile acids level
  bile acids level in plasma (fold change over control): increased bile acids level
[2]
  serum C4 levels: significantly raised levels
[6]
  levels of serum C4: increases in levels of serum C4
[3]
  CYP7A1 expression (Relative mRNA expression/Actin): increased CYP7A1 expression
[5]
  CYP7A1 expression (Relative mRNA expression/Actin): increased CYP7A1 expression

## COc1cc(OC)cc(N(CCNC(C)C)c2ccc3ncc(-c4cnn(C)c4)nc3c2)c1 [erdafitinib]
[3]
  CYP7A1 expression (Relative mRNA expression/Actin): increased CYP7A1 expression
[5]
  CYP7A1 expression (Relative mRNA expression/Actin): increased CYP7A1 expression

## C=CC(=O)N1CC[C@H](n2nc(C#Cc3cc(OC)cc(OC)c3)c3c(N)ncnc32)C1 [futibatinib]
[3]; HuH-7 cells, increasing concentrations of inhibitor alone, 18 hours
  CYP7A1 expression (Relative mRNA expression/Actin): increased CYP7A1 expression
[5]; Hep3B cells, increasing concentrations of inhibitor alone, 18 hours
  CYP7A1 expression (Relative mRNA expression/Actin): increased CYP7A1 expression
